Measured values reported in US20220280514A1, “METHODS OF TREATING BILE ACID DIARRHEA” (THE REGENTS OF THE UNIVERSITY OF CALIFORNIA, priority 2019, published 2022).

How the values were obtained:
CFTR [1] = biological target: T1, CFTR (Mus musculus, UniProt P26361); experiment: Short-circuit current measurement in mouse distal colon (ex vivo)
T1 construct: a full-thickness fragment is mounted in a micro-Ussing chamber; from tissue; host or cells: CD1 mouse colon, full-thickness fragment
Source text: For intestinal short-circuit current measurement, CD1 mice are anesthetized with isoflurane. The colon is removed, washed with ice-cold Krebs buffer, opened along the mesenteric border, and a full-thickness fragment is mounted in a micro-Ussing chamber (area 0.7 cm^2, World Precision Instruments). Hemichambers are filled with oxygenated Krebs-bicarbonate solution.

CFTR [2] = biological target: T1, CFTR; experiment: CDCA-induced fluid secretion in closed intestinal loops in mice; format: in vivo; details: for reduction in loop fluid accumulation: 5 mg/kg intraperitoneally 60 min before
Method: CD1 mice (age 8-10 weeks) are given access to 5% dextrose water but not solid food for 24 h before experiments. Mice are administered (R)-BPO-27 (5 mg/kg) or vehicle (5% DMSO, 10% Kolliphor HS in saline) intraperitoneally 60 min before creation of closed intestinal (mid-jejunal or distal colonic) loops and injection of CDCA or PBS vehicle. […] See Cil, O., et al. (2017) Benzopyrimido-pyrrolo-oxazine-dione CFTR inhibitor (R)-BPO-27 for antisecretory therapy of diarrheas caused by bacterial enterotoxins. FASEB J 31, 751-760. For creation of loops, mice are anesthetized with isoflurane, and body temperature is maintained during surgery at 36-38° C. using a heating pad. A small abdominal incision is made to expose the intestine. For the mid-jejunal closed-loop model, 2-3 cm loops are created by sutures. Loops are injected with 100 μl PBS containing CDCA or PBS vehicle. The abdominal incision is closed with sutures, and mice are allowed to recover from anesthesia. In the colonic closed-loop model, mice are given an enema (500 μl of mineral oil) 12 hours before surgery to cleanse the colon of solids as previously reported (Haggie, P. M., et al. (2018) SLC26A3 inhibitor identified in small molecule screen blocks colonic fluid absorption and reduces constipation. JCI Insight 3, e121370) and a 1-2 cm closed loop is created by sutures. Intestinal loops are surgically removed at specified times, and loop length and weight is measured to quantify fluid secretion. In some experiments, CF mice (ΔF508 homozygous, age 8-10 weeks) are used.

CFTR [3] = biological target: T2, CFTR (Rattus norvegicus, UniProt P34158); experiment: Rat model of bile acid diarrhea (mid-colonic CDCA infusion); format: in vivo
T2 construct: from tissue; host or cells: Sprague-Dawley rats in vivo, colon
Method: Female Sprague-Dawley rats (age 8-10 weeks) are administered 500 μl CDCA (10 mM in PBS) or PBS vehicle by a mid-colonic infusion using a flexible plastic tube (15 gauge, 78 mm length, Instech Laboratories, Plymouth Meeting, Pa.). Rats are intraperitoneally administered (R)-BPO-27 (10 mg/kg) (or vehicle control) 30 min before infusion. (R)-BPO-27 is dissolved in saline containing 5% DMSO and 10% Kolliphor HS. Following the infusion, rats are placed individually in metabolic cages and given free access to water and food. Stool samples are collected prior to infusion (for baseline stool water content) and over 4 hours after the infusion. Stools are weighed immediately when visualized to determine wet weight. To determine stool water content, the stool samples are dried at 70° C. for 24 hours and water content is calculated as (wet weight−dry weight)/wet weight.

[4] = mice; 5 mg/kg intraperitoneally; cited from earlier work
CFTR [5] = biological target: T3, CFTR (Homo sapiens, UniProt P13569); experiment: Short-circuit current measurements in T84 cells (bile acid-induced secretory current); format: cell-based; parameters: short-circuit current provides a direct measure of apical CFTR Cl^− current; host or cells: T84 cells; details: for block of the increase in short-circuit current following CDCA application: CDCA 0.75 mM both bathing solutions, inhibitor 10 μM; for prosecretory response (increase in short-circuit current) to bile acid: bile acid added to both apical and basolateral bathing solutions
Method: T84 cells (ATCC CCL-248) are cultured in a 1:1 mixture of DMEM/Ham's F-12 medium supplemented with 10% FBS, 100 U/mL penicillin and 100 μg/mL streptomycin. Cells are grown on Snapwell inserts (Costar Corning, Horseheads, N.Y.) at 37° C. in 5% CO2/95% air and used 7-14 days after plating.
T84 cells are mounted in Ussing chambers and bathed in symmetrical HCO3^−-buffered solution containing (in mM): 120 NaCl, 5 KCl, 1 MgCl2, 1 CaCl2), 10 D-glucose, 5 HEPES and 25 NaHCO3 (pH 7.4). The solutions are aerated with 95% O2/5% CO2 and maintained at 37° C. In one study, for measurement of apical Cl^− conductance, a basolateral to apical Cl^− gradient is applied in which the basolateral hemichamber contains (in mM): 120 NaCl, 1 MgCl2, 1 CaCl2, 10 D-glucose, 5 HEPES and 25 NaHCO3 (pH 7.4); in the apical solution 120 mM NaCl is replaced by 5 mM NaCl and 115 mM Na-gluconate, and the basolateral membrane is permeabilized with 250 µg/ml amphotericin B. Short-circuit current is measured using an EVC4000 multichannel voltage clamp (World Precision Instruments, Sarasota, Fla.).

CFTR [6] = biological target: T3, CFTR; experiment: Short-circuit current in primary human colonoid monolayer cultures; format: cell-based; parameters: Human cultures are generated from isolated intestinal crypts embedded in Matrigel; endogenous in cells; host or cells: primary human colonoid monolayers from three subjects; details: human colonoid monolayers
Source text: Human colonoid cultures are generated from de-identified tissue samples (other than age and sex) obtained from endoscopic or surgical procedures from three different subjects. Human cultures are generated from isolated intestinal crypts embedded in Matrigel (Corning, Tewksbury, Mass.) in 24-well plates and cultured in the presence of Wnt3A, R-spondin-1 and Noggin containing undifferentiated media (UDM) as described in Zachos, N. C. et. al (2016) Human enteroids/colonoids and intestinal organoids functionally recapitulate normal intestinal physiology and pathophysiology. J Biol Chem 291, 3759-3766; In, J., et al. (2016) Enterohemorrhagic Escherichia coli reduce mucus and intermicrovillar bridges in human stem cell-derived colonoids. Cell Mol Gastroenterol Hepatol 2, 48-62. Matrigel cultures in UDM media are used for the propagation of colonoids. To generate monolayer cultures, colonoids are triturated in Cultrex Organoid Harvesting Solution (Trevigen, Gaithersburg, Md.), and the fragments are collected by centrifugation and resuspended in UDM. Colonoid fragments (100 μL) are seeded onto 0.4 μm pore polyester membrane 24-well cell culture inserts (Transwell; Corning, Tewksbury, Mass.) pre-coated with human collagen IV (34 μg/mL; Millipore Sigma). […] Under these conditions, cultures reach confluency in 7-14 days as monitored by transepithelial resistance. […]

T84 cells = experiment: Intracellular Ca2+ measurement by Fluo-4 fluorescence in T84 cells; format: cell-based; details: CDCA 0.75 or 1 mM, ATP or carbachol 100 μM, BAPTA-AM 30 μM pretreatment 30 min
Method: T84 cells are plated in 96-well black-walled microplates. Confluent cells are loaded with Fluo-4 NW (Invitrogen, Carlsbad, Calif.) at 72 h after plating. For Ca^2+ measurement Fluo-4 fluorescence is measured with a FluoStar fluorescence plate reader (BMG Lab Technologies, Durham, N.C.) at excitation/emission wavelengths of 485/538 nm. In some studies cells are pretreated for 30 min with BAPTA-AM. Ca^2+ measurement in human colonoid cultures is done in monolayers that are transduced with the fluorescent Ca^2+ sensor Adeno-GCsMP6s. For cAMP assay, T84 cells are grown in 24-well plates, treated for 30 min with CDCA and/or forskolin, lysed by repeating freeze/thaw, centrifuged to remove cell debris, and the supernatant is assayed for cAMP using the Parameter cAMP immunoassay kit according to the manufacturer's instructions (R&D Systems, Minneapolis, […].).

[7] = closed mid-jejunal loops, CDCA 10 mM

T1 sequence (P26361 whole entry, the tested form may be a part): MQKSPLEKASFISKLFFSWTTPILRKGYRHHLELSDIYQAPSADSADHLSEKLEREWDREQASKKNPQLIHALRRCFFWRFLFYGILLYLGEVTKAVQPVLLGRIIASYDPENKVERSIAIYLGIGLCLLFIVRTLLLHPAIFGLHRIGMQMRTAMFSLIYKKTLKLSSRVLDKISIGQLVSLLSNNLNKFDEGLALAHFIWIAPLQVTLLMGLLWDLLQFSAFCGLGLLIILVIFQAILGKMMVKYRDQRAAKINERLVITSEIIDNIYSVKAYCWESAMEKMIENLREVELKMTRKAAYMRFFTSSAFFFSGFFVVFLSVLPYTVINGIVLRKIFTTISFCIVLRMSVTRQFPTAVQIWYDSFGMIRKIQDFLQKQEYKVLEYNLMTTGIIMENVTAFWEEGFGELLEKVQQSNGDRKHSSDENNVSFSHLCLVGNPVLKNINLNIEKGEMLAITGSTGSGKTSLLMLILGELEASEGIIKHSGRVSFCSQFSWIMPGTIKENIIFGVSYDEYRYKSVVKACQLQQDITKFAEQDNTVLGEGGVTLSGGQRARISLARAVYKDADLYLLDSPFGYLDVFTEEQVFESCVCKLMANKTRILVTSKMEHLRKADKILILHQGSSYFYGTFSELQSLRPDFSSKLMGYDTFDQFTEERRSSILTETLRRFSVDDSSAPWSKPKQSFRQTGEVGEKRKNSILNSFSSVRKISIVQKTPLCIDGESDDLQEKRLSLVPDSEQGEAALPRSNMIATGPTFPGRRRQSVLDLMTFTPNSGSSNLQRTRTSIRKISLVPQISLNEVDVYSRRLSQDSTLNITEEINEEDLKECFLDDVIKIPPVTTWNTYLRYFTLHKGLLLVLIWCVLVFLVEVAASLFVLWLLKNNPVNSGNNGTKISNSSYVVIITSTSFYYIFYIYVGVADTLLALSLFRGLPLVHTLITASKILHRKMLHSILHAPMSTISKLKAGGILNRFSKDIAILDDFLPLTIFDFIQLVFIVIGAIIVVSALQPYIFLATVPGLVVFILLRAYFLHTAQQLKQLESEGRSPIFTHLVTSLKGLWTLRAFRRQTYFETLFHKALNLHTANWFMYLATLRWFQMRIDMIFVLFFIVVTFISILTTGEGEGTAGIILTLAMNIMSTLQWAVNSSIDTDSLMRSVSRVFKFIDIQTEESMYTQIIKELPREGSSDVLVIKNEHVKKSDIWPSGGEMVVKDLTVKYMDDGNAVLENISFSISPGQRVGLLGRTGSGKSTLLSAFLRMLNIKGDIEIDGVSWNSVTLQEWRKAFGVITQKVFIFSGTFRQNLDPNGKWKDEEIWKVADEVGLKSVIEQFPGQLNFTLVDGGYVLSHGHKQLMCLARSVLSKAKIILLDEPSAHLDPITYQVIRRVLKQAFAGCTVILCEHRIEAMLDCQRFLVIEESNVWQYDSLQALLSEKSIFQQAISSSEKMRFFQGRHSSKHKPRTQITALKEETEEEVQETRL
T2 sequence (P34158 whole entry, the tested form may be a part): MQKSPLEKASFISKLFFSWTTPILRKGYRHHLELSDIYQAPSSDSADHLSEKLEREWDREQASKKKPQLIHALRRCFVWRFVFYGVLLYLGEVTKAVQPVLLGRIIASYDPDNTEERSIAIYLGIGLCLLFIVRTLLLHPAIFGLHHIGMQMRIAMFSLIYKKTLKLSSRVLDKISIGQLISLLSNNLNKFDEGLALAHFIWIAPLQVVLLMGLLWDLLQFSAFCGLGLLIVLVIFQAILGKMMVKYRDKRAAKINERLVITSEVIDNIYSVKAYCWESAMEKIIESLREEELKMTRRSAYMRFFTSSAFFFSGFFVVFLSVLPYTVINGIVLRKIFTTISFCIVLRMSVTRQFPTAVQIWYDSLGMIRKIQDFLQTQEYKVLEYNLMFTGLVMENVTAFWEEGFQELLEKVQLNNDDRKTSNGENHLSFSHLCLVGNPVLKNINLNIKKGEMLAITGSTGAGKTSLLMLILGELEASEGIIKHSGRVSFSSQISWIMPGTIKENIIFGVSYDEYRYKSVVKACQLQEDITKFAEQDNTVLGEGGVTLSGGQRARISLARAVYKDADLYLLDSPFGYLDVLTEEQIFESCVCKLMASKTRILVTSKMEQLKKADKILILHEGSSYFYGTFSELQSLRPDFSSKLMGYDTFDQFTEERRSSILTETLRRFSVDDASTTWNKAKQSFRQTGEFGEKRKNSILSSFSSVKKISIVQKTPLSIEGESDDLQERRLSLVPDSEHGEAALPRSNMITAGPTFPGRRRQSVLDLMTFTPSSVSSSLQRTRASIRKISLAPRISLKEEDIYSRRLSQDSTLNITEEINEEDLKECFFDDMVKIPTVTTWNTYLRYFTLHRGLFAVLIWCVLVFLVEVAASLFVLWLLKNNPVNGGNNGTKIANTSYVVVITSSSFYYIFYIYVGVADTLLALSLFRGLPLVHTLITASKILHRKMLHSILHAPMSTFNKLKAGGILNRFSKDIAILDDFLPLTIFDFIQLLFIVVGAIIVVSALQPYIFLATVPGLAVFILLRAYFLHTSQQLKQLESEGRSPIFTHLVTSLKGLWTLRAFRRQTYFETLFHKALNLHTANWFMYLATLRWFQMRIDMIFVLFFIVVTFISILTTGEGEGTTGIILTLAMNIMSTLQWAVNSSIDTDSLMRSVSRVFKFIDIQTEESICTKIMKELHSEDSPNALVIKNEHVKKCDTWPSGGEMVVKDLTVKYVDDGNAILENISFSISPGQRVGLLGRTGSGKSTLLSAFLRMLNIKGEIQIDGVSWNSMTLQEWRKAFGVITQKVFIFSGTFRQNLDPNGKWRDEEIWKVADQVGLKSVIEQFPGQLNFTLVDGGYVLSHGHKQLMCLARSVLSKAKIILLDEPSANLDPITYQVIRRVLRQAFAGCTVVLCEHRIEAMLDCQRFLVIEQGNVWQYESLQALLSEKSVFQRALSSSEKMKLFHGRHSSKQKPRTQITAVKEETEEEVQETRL
T3 sequence (P13569 whole entry): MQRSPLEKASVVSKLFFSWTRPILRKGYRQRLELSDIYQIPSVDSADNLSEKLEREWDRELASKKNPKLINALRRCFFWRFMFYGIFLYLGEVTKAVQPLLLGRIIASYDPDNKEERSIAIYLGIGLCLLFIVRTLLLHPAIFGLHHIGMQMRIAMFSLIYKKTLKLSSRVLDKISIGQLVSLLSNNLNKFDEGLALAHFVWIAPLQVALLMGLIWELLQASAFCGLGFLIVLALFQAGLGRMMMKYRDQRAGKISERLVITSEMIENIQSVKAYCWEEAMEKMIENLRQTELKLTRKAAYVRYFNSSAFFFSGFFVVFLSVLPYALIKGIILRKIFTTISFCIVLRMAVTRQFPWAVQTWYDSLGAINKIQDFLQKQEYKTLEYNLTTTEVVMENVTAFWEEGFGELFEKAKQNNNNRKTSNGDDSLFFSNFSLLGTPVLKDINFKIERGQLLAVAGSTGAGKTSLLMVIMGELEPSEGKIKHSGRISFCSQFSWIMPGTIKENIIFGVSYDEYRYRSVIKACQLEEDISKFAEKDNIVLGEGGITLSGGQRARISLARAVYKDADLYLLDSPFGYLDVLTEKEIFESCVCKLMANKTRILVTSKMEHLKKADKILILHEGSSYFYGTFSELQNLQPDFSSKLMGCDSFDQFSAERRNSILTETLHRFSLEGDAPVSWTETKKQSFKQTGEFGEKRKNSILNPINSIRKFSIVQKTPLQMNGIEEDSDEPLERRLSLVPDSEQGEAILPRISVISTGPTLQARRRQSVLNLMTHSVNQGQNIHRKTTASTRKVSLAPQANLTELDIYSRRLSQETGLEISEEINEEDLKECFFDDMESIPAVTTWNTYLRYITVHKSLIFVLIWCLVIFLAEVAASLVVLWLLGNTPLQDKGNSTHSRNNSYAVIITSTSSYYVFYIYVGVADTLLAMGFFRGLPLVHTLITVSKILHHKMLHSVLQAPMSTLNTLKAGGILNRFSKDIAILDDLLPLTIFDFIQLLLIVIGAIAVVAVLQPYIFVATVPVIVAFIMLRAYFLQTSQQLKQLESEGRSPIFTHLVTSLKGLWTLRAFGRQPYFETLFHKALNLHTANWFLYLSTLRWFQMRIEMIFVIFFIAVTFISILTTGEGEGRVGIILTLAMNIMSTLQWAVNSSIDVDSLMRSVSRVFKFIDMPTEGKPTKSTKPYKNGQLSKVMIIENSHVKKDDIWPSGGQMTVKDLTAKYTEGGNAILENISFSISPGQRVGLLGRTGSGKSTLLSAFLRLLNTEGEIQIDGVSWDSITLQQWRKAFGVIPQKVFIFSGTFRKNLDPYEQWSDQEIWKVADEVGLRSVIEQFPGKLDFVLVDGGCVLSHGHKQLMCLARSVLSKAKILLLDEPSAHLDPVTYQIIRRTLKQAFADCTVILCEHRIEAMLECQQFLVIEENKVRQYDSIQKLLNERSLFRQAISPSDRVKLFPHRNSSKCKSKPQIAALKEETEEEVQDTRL

For `Cn1c(=O)c2c(-c3ccccc3)n3c(c2n(C)c1=O)[C@H](c1ccc(Br)o1)Oc1ccc(C(=O)O)cc1-3` [(R)-BPO-27, 6-(5-Bromofuran-2-yl)-7,9-dimethyl-8,10-dioxo-11-phenyl-7,8,9,10-tetrahydro-6H-benzo[b]pyrimido [4′,5′:3,4]pyrrolo [1,2-d][1,4]oxazine-2-carboxylic acid], the “change in short-circuit current after (R)-BPO-27” value (CFTR [1]; after apical CDCA 1 mM, (R)-BPO-27 10 μM, mean±S.E.M., n=3) was −5.2±1.7 μA/cm^2, the “reversal of CDCA-induced short-circuit current” value (CFTR [1]; apical CDCA 1 mM, (R)-BPO-27 10 μM) was “fully reversed” and the “reduction in loop fluid accumulation” value (CFTR [2]; closed colonic loops, CDCA 2.5, 10 mM) was roughly 70%. For the same molecule, the “reduction in loop fluid accumulation” value (CFTR [2]; [7]) was 55%, the “effect on stool quantity or water content” value (CFTR [3]; rats receiving mid-colonic infusion of PBS, 10 mg/kg intraperitoneally) was “does not affect” and the “inhibition of the increase in stool water content” value (CFTR [3]; rats, mid-colonic CDCA infusion 10 mM, 10 mg/kg intraperitoneally 30 min before, stool over 4 hours) was roughly 55%. For the same molecule, the serum levels [4] was “therapeutic serum levels for several hours”, the “block of the increase in short-circuit current following CDCA application” value (CFTR [5]; T84 cells) was “fully blocked” and the “block of secretory current produced by CDCA, DCA and their taurine conjugates” value (CFTR [5]; T84 cells, bile acids in apical and basolateral solutions, (R)-BPO-27 10 μM) was “blocked”. The IC50 (CFTR [5]; T84 cells, concentration-dependence studies, data not shown, read-out: IC50 for inhibition of CDCA-induced short-circuit current) was less than 1 µM, the “block of increased current after CDCA followed by forskolin” value (CFTR [5]; T84 cells, forskolin 10 μM, (R)-BPO-27 10 μM) was “fully blocked” and the “inhibition of CDCA-activated apical CFTR Cl− current” value (CFTR [5]; basolateral membrane-permeabilized T84 monolayers, Cl− gradient, apical CDCA 0.75 or 1 mM, (R)-BPO-27 10 μM) was “inhibition by (R)-BPO-27 is confirmed”. For the same molecule, the “reversal of CDCA-induced increase in short-circuit current” value (CFTR [6]; apical CDCA, (R)-BPO-27 5 μM) was “reversed”.
With `Cn1c(=O)c2c(-c3ccccc3)n3c(c2n(C)c1=O)[C@@H](c1ccc(Br)o1)Oc1ccc(C(=O)O)cc1-3` [(S)-BPO-27, 6-(5-Bromofuran-2-yl)-7,9-dimethyl-8,10-dioxo-11-phenyl-7,8,9,10-tetrahydro-6H-benzo[b]pyrimido [4′,5′:3,4]pyrrolo [1,2-d][1,4]oxazine-2-carboxylic acid, reference compound] the “effect on loop fluid accumulation (in words)” value (CFTR [2]; [7]) was “no significant effect”.
With `CC(=O)OCOC(=O)CN(CC(=O)OCOC(C)=O)c1ccccc1OCCOc1ccccc1N(CC(=O)OCOC(C)=O)CC(=O)OCOC(C)=O` [BAPTA-AM, 1,2-Bis(2-aminophenoxy)ethane-N,N,N′,N′-tetraacetic acid tetrakis(acetoxymethyl ester), reference compound] the “block of Ca2+ elevations” value (T84 cells) was “largely blocked”, the “block of CDCA-induced increase in short-circuit current by pretreatment” value (CFTR [5]; T84 cells, CDCA 1 mM, BAPTA-AM 30 μM pretreatment 25 min) was “largely blocked” and the “reduction of CDCA-induced increase in short-circuit current by pretreatment” value (CFTR [6]; CDCA 0.5 mM, BAPTA-AM 30 μM pretreatment 20 min) was “greatly reduced”.
In the case of `C[C@H](CCC(=O)O)[C@H]1CC[C@H]2[C@@H]3[C@H](O)C[C@@H]4C[C@H](O)CC[C@]4(C)[C@H]3CC[C@]12C` [CDCA, chenodeoxycholic acid, reference compound], the “increase in short-circuit current” value (CFTR [1]; CDCA 1 mM added to apical bathing solution, mean±S.E.M., n=3) is reported as 5.2±1.4 μA/cm^2, the “increase in short-circuit current (in words)” value (CFTR [1]; CDCA added to basolateral bathing solution) is reported as “No increase in short-circuit current” and the “increase in stool water content” value (CFTR [3]; rats, mid-colonic infusion of CDCA 10 mM, stool over 4 hours) is reported as roughly 25%. The “prosecretory response (increase in short-circuit current) to bile acid” value (CFTR [5]; T84 cells) was “robust secretory current”.
For `O=C(O)c1ccc(/C=C2\SC(=S)N(c3cccc(C(F)(F)F)c3)C2=O)cc1` [CFTRinh-172, 4-[[4-Oxo-2-thioxo-3-[3-(trifluoromethyl)phenyl]-5-thiazolidinylidene]methyl]benzoic acid, reference compound], the “block of the increase in short-circuit current following CDCA application” value (CFTR [5]; T84 cells) was “fully blocked”.
With `C[C@H](CCC(=O)O)[C@H]1CC[C@H]2[C@@H]3[C@H](O)C[C@@H]4C[C@H](O)CC[C@]4(C)[C@H]3C[C@H](O)[C@]12C` [cholic acid, reference compound] the “prosecretory response (increase in short-circuit current) to bile acid” value (CFTR [5]; T84 cells) was “No increase in short-circuit current”.
